{"source": "patent US20080045467A1", "about": "“Composition Containing Ginsenoside F1 Or Compound K For Skin External Application” (Amorepacific Corporation, priority 2004, published 2008)", "key": {"[1]": {"tested_on": "epidermal-dermal junction", "test": "Change in epidermal-dermal junction of UV-irradiated nude mouse (electron microscope)", "format": "in vivo", "conditions": "applied while irradiating with UV light, compared to comparative formulation 1", "method": "In order to verify the change to the epidermal-dermal junction irradiated with UV light by the composition of the present invention, external applications with the formulation of nutrition cream were prepared according to the ratios in Table 5.\nEach of the formulations 1˜3 and the comparative formulation 1 were applied to the back of each nude mouse 5 times in a week for 2 weeks, and for 12 weeks thereafter each of the formulations 1˜3 and the comparative formulation 1 were applied 5 times per week while irradiating UV light 3 times. After biopsy, the change of the epidermal-dermal junction was determined by electron microscope."}, "Type VII collagen": {"tested_on": "Type VII collagen", "test": "Biosynthesis of Type VII collagen in human fibroblast (Dot Blot)", "format": "cell-based", "conditions": "24 hours, control group = 100", "method": "Human fibroblast was cultured with a concentration of 10^4 cells/well in 24-well plate mediums, and each medium was exchanged with a new one containing the compound separated in Example 1 or 2 at the densities of 0.1 ppm, 1 ppm or 10 ppm. After 24 hours of cultivation, the supernatants were harvested and the amount of Type VII collagen was quantified using Dot Blot method."}, "laminin 10/11": {"tested_on": "laminin 10/11", "test": "Biosynthesis of laminin 10/11 in human keratinocyte (Dot Blot)", "format": "cell-based", "conditions": "24 hours, control group = 100", "method": "(§1) Human keratinocyte was cultured with a concentration of 5×10^4 cells/well in 24-well plate mediums, and each medium was exchanged with a new one containing the compound separated in either Example 1 or 2 at the densities of 0.1 ppm, 1 ppm or 10 ppm. After 24 hours of cultivation, the supernatants were harvested and the amount of laminin 10/11 was quantified using Dot Blot method."}, "Type IV collagen": {"tested_on": "Type IV collagen", "test": "Biosynthesis of Type IV collagen in human keratinocyte (Dot Blot)", "format": "cell-based", "conditions": "24 hours, control = 100", "method": "as §1, with “example” for “Example”, “Type IV collagen” for “laminin 10/11”"}, "MMP-9": {"tested_on": "MMP-9", "test": "Inhibition of biosynthesis of MMP-9 in UVB-irradiated human keratinocyte (gelatin zymography)", "format": "cell-based", "conditions": "30 mJ/cm^2 UVB, 2 days, amount relative to control group = 100", "method": "(§2) Human keratinocyte was cultured with a concentration of 10^4 cells/well in 24-well plate mediums, and 24 hours later they were irradiated with 30 mJ/cm^2 of UVB. Each medium was then exchanged with a new one containing the compound separated in either Example 1 or 2 at the densities of 0.1 ppm, 1 ppm or 10 ppm, respectively. After 2 days of cultivation, the supernatants were obtained and gelatin zymography was performed on the obtained supernatant to form MMP-2 and MMP-9. The amount of MMP-2 and MMP-9 thus formed was determined by densitometer for each medium, and was compared with the amount of MMP-2 and MMP-9 in the control group, which was set as 100 (The mediums not containing the compounds in Examples 1 and 2 were cultured as a control group)."}, "MMP-2": {"tested_on": "MMP-2", "test": "Inhibition of biosynthesis of MMP-2 in UVB-irradiated human keratinocyte (gelatin zymography)", "format": "cell-based", "conditions": "30 mJ/cm^2 UVB, 2 days, amount relative to control group = 100", "method": "as §2"}}}
{"smiles": "CC(C)=CCC[C@](C)(O[C@@H]1O[C@H](CO)[C@@H](O)[C@H](O)[C@H]1O)[C@H]1CC[C@]2(C)[C@@H]1[C@H](O)C[C@@H]1[C@@]3(C)CC[C@H](O)C(C)(C)[C@@H]3[C@@H](O)C[C@]12C", "note": "[Example 1, 20-O-β-D-glucopyranosyl-20(S)-protopanaxatriol]", "values": [{"measurement": "change, separation or multiplexing of the epidermal-dermal junction", "setting": "[1]", "value": "little change, separation or multiplexing"}, {"measurement": "Biosynthesis of Type VII collagen (%)", "setting": "Type VII collagen; 0.1 ppm", "value": 118, "unit": "%"}, {"measurement": "Biosynthesis of Type VII collagen (%)", "setting": "Type VII collagen; 1 ppm", "value": 132, "unit": "%"}, {"measurement": "Biosynthesis of Type VII collagen (%)", "setting": "Type VII collagen; 10 ppm", "value": 141, "unit": "%"}, {"measurement": "Biosynthesis of laminin 10/11 (%)", "setting": "laminin 10/11; 0.1 ppm", "value": 112, "unit": "%"}, {"measurement": "Biosynthesis of laminin 10/11 (%)", "setting": "laminin 10/11; 1 ppm", "value": 125, "unit": "%"}, {"measurement": "Biosynthesis of laminin 10/11 (%)", "setting": "laminin 10/11; 10 ppm", "value": 134, "unit": "%"}, {"measurement": "Biosynthesis of Type IV collagen (%)", "setting": "Type IV collagen; 0.1 ppm", "value": 116, "unit": "%"}, {"measurement": "Biosynthesis of Type IV collagen (%)", "setting": "Type IV collagen; 1 ppm", "value": 129, "unit": "%"}, {"measurement": "Biosynthesis of Type IV collagen (%)", "setting": "Type IV collagen; 10 ppm", "value": 134, "unit": "%"}, {"measurement": "MMP-9 (%)", "setting": "MMP-9; 0.1 ppm", "value": 85, "unit": "%"}, {"measurement": "MMP-9 (%)", "setting": "MMP-9; 1 ppm", "value": 69, "unit": "%"}, {"measurement": "MMP-9 (%)", "setting": "MMP-9; 10 ppm", "value": 55, "unit": "%"}, {"measurement": "MMP-2 (%)", "setting": "MMP-2; 0.1 ppm", "value": 82, "unit": "%"}, {"measurement": "MMP-2 (%)", "setting": "MMP-2; 1 ppm", "value": 67, "unit": "%"}, {"measurement": "MMP-2 (%)", "setting": "MMP-2; 10 ppm", "value": 51, "unit": "%"}]}
{"smiles": "CC(C)=CCC[C@](C)(O[C@@H]1O[C@H](CO)[C@@H](O)[C@H](O)[C@H]1O)[C@H]1CC[C@]2(C)[C@@H]1[C@H](O)C[C@@H]1[C@@]3(C)CC[C@H](O)C(C)(C)[C@@H]3CC[C@]12C", "note": "[Example 2, 20-O-β-D-glucopyranosyl-20(S)-protopanaxadiol]", "values": [{"measurement": "change, separation or multiplexing of the epidermal-dermal junction", "setting": "[1]", "value": "little change, separation or multiplexing"}, {"measurement": "Biosynthesis of Type VII collagen (%)", "setting": "Type VII collagen; 0.1 ppm", "value": 120, "unit": "%"}, {"measurement": "Biosynthesis of Type VII collagen (%)", "setting": "Type VII collagen; 1 ppm", "value": 135, "unit": "%"}, {"measurement": "Biosynthesis of Type VII collagen (%)", "setting": "Type VII collagen; 10 ppm", "value": 146, "unit": "%"}, {"measurement": "Biosynthesis of laminin 10/11 (%)", "setting": "laminin 10/11; 0.1 ppm", "value": 115, "unit": "%"}, {"measurement": "Biosynthesis of laminin 10/11 (%)", "setting": "laminin 10/11; 1 ppm", "value": 125, "unit": "%"}, {"measurement": "Biosynthesis of laminin 10/11 (%)", "setting": "laminin 10/11; 10 ppm", "value": 137, "unit": "%"}, {"measurement": "Biosynthesis of Type IV collagen (%)", "setting": "Type IV collagen; 0.1 ppm", "value": 119, "unit": "%"}, {"measurement": "Biosynthesis of Type IV collagen (%)", "setting": "Type IV collagen; 1 ppm", "value": 128, "unit": "%"}, {"measurement": "Biosynthesis of Type IV collagen (%)", "setting": "Type IV collagen; 10 ppm", "value": 139, "unit": "%"}, {"measurement": "MMP-9 (%)", "setting": "MMP-9; 0.1 ppm", "value": 78, "unit": "%"}, {"measurement": "MMP-9 (%)", "setting": "MMP-9; 1 ppm", "value": 62, "unit": "%"}, {"measurement": "MMP-9 (%)", "setting": "MMP-9; 10 ppm", "value": 49, "unit": "%"}, {"measurement": "MMP-2 (%)", "setting": "MMP-2; 0.1 ppm", "value": 79, "unit": "%"}, {"measurement": "MMP-2 (%)", "setting": "MMP-2; 1 ppm", "value": 61, "unit": "%"}, {"measurement": "MMP-2 (%)", "setting": "MMP-2; 10 ppm", "value": 48, "unit": "%"}]}
